According to patent publication US20170333560A1, “Pharmaceutical Composition That Includes A Neutral Carrier Treated With Energy And Related Methods Of Treatment” (priority 2016, published 2017):

Assays:
[1] = test system: obsessive-compulsive disorder with prevailing anxiety disorders; assay: Study versus Diazepam in obsessive-compulsive disorder (HAM-A, STAI, SAN); type: in vivo, human
Experimental: (§1) A study was conducted to examine the efficacy of the claimed drug, formulated as a water solution (liquid dosage form) of the activated (potentized) energy-treated carrier, obtained by multiple consecutive dilution of the initial matrix solution in an aqueous-alcoholic diluent, combined with external mechanical impact—shaking of each resulting dilution, to a degree of 100^200, equivalent to a centesimal (C200) homeopathic dilution (wherein the energy treatment of the initial neutral carrier has been accomplished by exposing it to an electric current caused by a difference of potentials being applied to electrodes placed in the initial liquid carrier and which is proportional in amplitude to an amplified combined, summed signal, formed by summing the resultant signals—biopotential differences of individual referential derivations recorded in five healthy donors using the internationally recognized 10-20 system, which involves 19 active recording electrodes placed in regular positions all over the scalp and one reference electrode located on the ear-lobe)—further referred to as AP drug—in treating obsessive-compulsive disorder.
The tolerability and anxiolytic efficacy of AP drug was examined versus Diazepam in patients with obsessive-compulsive disorder with prevailing anxiety disorders. Inclusion criteria: • 1. Subjects aged from 18 to 65 years. • 2. Subjects meeting the obsessive-compulsive disorder criteria (ICD-10 code F42). • 3. Subjects receiving no treatment with psychoactive agents at least for a week before and at the time of the trial.
The study included 20 patients (8 men and 12 women) aged between 19 and 62 years old. The mean patient age and mean duration of disease were 38.0±1.6 years and 2.1±0.5 years, respectively.
The duration of treatment was […]. The patients randomized to AP drug (45) received it at a dose of 20 drops 4 times daily; the rest 35 patients were assigned to receive Diazepam at 15 mg daily.
The patients were assessed for OCD symptom severity at baseline (day 0) and at days 7, 14, and 28.

[2] = test system: depression in patients with post-traumatic stress disorders; assay: Comparative trial versus Heptral in stress-related depression (HAM-D, HADS, CGI); type: in vivo, human; design: CGI Efficacy Index / CGI Severity scale total score / CGI Improvement scale total score: scale not given here
Experimental: A randomized, […] study was conducted to examine the efficacy and safety of the claimed drug, formulated as a solid dosage form containing lactose granules impregnated with water-alcohol solution of the liquid activated (potentized) energy-treated carrier, obtained by multiple consecutive dilution of the initial matrix solution in an aqueous-alcoholic diluent, combined with external mechanical impact—shaking of each resulting dilution, to a degree of 100^200, equivalent to a centesimal (C200) homeopathic dilution (wherein the energy treatment of the initial liquid carrier has been accomplished by exposing it to an electric current caused by a difference of potentials being applied to electrodes placed in the initial liquid carrier and which is proportional in amplitude to an amplified combined, summed signal, formed by summing the resultant signals—biopotential differences of individual referential derivations recorded in five healthy donors using the internationally recognized 10-20 system, which involves 19 active recording electrodes placed in regular positions all over the scalp and one reference electrode located on the ear-lobe)—further referred to as AP drug, where it was used for treating depression in patients with post-traumatic stress disorders.
AP drug was administered to manage the depressive symptoms—in parallel to Heptral (adametionine), used as a comparator in efficacy assessment. AP drug was administered for 4 weeks at a dose of 2 tablets 4 times daily. Heptral was used at 400 mg 3 times (1200 mg) daily.
An open comparative clinical trial was performed which involved 30 patients (16 men and 14 women) assigned to two parallel groups: 15 patients in the group of AP drug and 15 in the heptral group. The mean age of participants assigned to AP drug was 38.0±4.39 years;
The period of study participation was 8 weeks (the total treatment duration of 4 weeks and 4 weeks of follow-up).
Neither of the patient groups was allowed to take psychoactive medications during the study. The drugs not prohibited for use during the treatment were medications for the underlying traumatic illness and co-existing somatic disorders. The study enrolled inpatients aged from 18 to 65 years old, who had been receiving medical attention for bodily injuries resulting from car accidents, which had taken place under circumstances threatening the life or welfare of the patient or/and their friends or family members suffering from anxiety mental disorders, such as (defined by the ICD-10) reaction to severe stress, and adjustment disorders (F43); adjustment disorders (F43.2); adjustment disorder with mixed anxiety and depressed mood (F43.23).
1. Reduced severity of depressive symptoms and signs as measured by the HADS. 2. Reduced severity of depressive symptoms and signs as measured by the HAM-D 3. Efficacy Index assessment on the Clinical Global Impression (CGI) scale.
The patients' mental health was examined at baseline—at admission to the clinic, following 1, 2 and 4 weeks of treatment, and 4 weeks after treatment discontinuation (follow-up).
The effect of study treatment was evaluated according to changes in the total HAM-D score and scoring outcomes on the HADS anxiety and depression subscales. In addition, the Clinical Global Impression scale was administered to primarily estimate the Efficacy Index for the treatment conducted.

[3] = test system: pseudoneurotic disorder in patients with organic brain disease; assay: Study of pseudoneurotic disorder in organic brain disease (anxiety levels, Hamilton scale); type: in vivo, human
Experimental: as §1, with “pseudoneurotic disorder in patients with organic brain disease. […]” for “obsessive-compulsive disorder.”

[4] = test system: children with clinical signs and symptoms of a hyperkinetic disorder (HD); assay: Comparative study versus piracetam in children with hyperkinetic disorder (SNAP-IV, TOVA, fine motor skills); type: in vivo, human; conditions: for TOVA Commission errors, % / TOVA Omission errors, % / TOVA Response time: after two months
Description: The study included 57 children aged from 6 to 9 years (40 boys and 17 girls), who were nursery/preschool attendants and primary school students.
The inclusion criteria were: 1. Children with clinical signs and symptoms of a hyperkinetic disorder (HD) meeting the ICD-10 criteria (F 90); 2. Age range: 6 to 9 years; 3. At least a medium IQ score (90 points) on the Wechsler Intelligence Scale.
The study excluded children with behavior disturbances related to other mental disorders. Children with HD signs and symptoms who were allocated to the group of test treatment (n=30) received AP drug as a monotherapy, at 2 tablets 3 times daily for 2 months.
This assessment was repeated following two months of treatment with AP drug (test group) and piracetam (control group). The scores obtained were compared with the normative rating results and statistically analyzed (Table 11).
The computer-based psychophysiological TOVA assessment involved three sets of tests measuring inattention (omission errors), impulsivity (commission errors), and speed of information processing (response time). The baseline measurements of HD children were compared with those obtained in the test group (AP drug) and in the control group (piracetam) after two months of treatment.

[5] = test system: scopolamine-induced amnesia in male albino Wistar rats; assay: Scopolamine-induced amnesia for passive avoidance conditioning; type: in vivo, rat
Experimental: as §1, with “evaluate” for “examine”, “nootropic effect” for “efficacy”, “liquid” for “neutral”, “drug, using standard experimental approaches—by examining the test drug's antiamnestic effects in scopolamine-induced amnesia for passive avoidance conditioning in sexually mature rats. A total of 36 male albino Wistar rats were used for the study.” for “drug—in treating obsessive-compulsive disorder.”
For amnesia induction, 15 minutes prior to passive avoidance training, the animals were administered a single intraperitoneal dose (2 mg/kg) of a muscarinic receptor antagonist—scopolamine.
AP drug was administered to 12 rats intragastrically, at 2.5 ml/kg daily, prior to training (1 hour before the start of the experiment), immediately after training, 24 hours post training, and 1 hour prior to the passive avoidance recall test. […]
On the memory recall test, the rats' behavior was evaluated by examining: latency time taken by test animals to first enter the dark compartment and total time spent therein over a certain time period.
The conditioning of passive avoidance behavior was as follows: On day 1, the animals were trained to stay in a shuttle box, which consisted of a large, 300×300×250 mm, white illuminated compartment (with transparent walls) and a smaller, 150×150×180 mm, black dark compartment with an electrical grid floor. […] For 3 minutes, the total times of the rat's stay in the small compartment and latency before moving in were recorded. […]
The data gathered were recorded as the mean (M) and standard error of the mean (SEM). […] The results of examining the rats' memory recall were analyzed for statistical significance with the Wilcoxon test. […]

## CN1C(=O)CN=C(c2ccccc2)c2cc(Cl)ccc21 [Diazepam]
[1]; Day 7
  HAM-A scores: 19.02
[1]; Day 14
  HAM-A scores: 12.93
[1]; at 28 days
  Average reduction of HAM-A scores: 70.2%
  Percentage of patients exhibiting treatment response (50% reduction of mean HAM-A score and over): 100%
[1]; at treatment completion
  Mean SAN score: 3.6
[1]; throughout the study
  Occurrence of adverse reactions: 82.9%
[1]; treatment completion
  Reduction in trait anxiety scores (STAI): 22.3%
  Reduction of situational anxiety (STAI) scores: 29.6%

## C[S+](CC[C@H](N)C(=O)[O-])C[C@H]1O[C@@H](n2cnc3c(N)ncnc32)[C@H](O)[C@@H]1O (stereo partly shown) [Heptral, adametionine]
[2]; Visit 1 (baseline)
  CGI Severity scale total score: 3.8 ± 0.17
[2]; Visit 1 (baseline), n = 15
  Total HADS depression score: 17.5
  Total HAM-D score: 26.2
[2]; Visit 2 (week 1)
  CGI Efficacy Index: 1.1 ± 0.08
  CGI Improvement scale total score: 2.9 ± 0.07
  CGI Severity scale total score: 2.9 ± 0.12
  Total HADS depression score: 13.2
  Total HAM-D score: 23.1
[2]; Visit 3 (week 2)
  CGI Efficacy Index: 1.8 ± 0.19
  CGI Improvement scale total score: 2.1 ± 0.15
  CGI Severity scale total score: 1.9 ± 0.12
  Total HADS depression score: 9.6
  Total HAM-D score: 15.6
[2]; Visit 4 (week 4)
  CGI Efficacy Index: 2.3 ± 0.18
  CGI Improvement scale total score: 1.2 ± 0.11
  CGI Severity scale total score: 1.1 ± 0.07
  Total HADS depression score: 6.5
  Total HAM-D score: 14.1
[2]; Visit 5 (follow-up)
  CGI Efficacy Index: 2.3 ± 0.18
  CGI Improvement scale total score: 1.1 ± 0.07
  CGI Severity scale total score: 1.0 ± 0.00
  Total HADS depression score: 3.5
  Total HAM-D score: 12.1
[2]; group of 15
  Adverse event anxiety worsening: 2 patients
  Adverse event dizziness: 5 patients
  Adverse event headache: 3 patients

## O=C1CN=C(c2ccccc2Cl)c2cc(Br)ccc2N1 [phenazepam]
[3]; after treatment
  Hamilton scale score: 31.7±1.5
[3]; baseline score
  Hamilton scale score: 32.8±1.4

## NC(=O)CN1CCCC1=O [piracetam]
[4]; 2 months
  Children with increased disinhibition/excitability: 11.1%
  Children with sleep problems: 26%
[4]; First section
  TOVA Commission errors, %: 12.5 ± 3.2%
  TOVA Omission errors, %: 13.6 ± 1.4 %
  TOVA Response time: 736 ± 83 ms
[4]; Second section
  TOVA Commission errors, %: 21.1 ± 2.7%
  TOVA Omission errors, %: 17.2 ± 2.8 %
  TOVA Response time: 656 ± 79 ms
[4]; after treatment completion
  Total score for fine motor skills: 1.62 ± 0.16
[4]; after two months of treatment
  SNAP-IV Attention problems: 2.48 ± 0.12
  SNAP-IV Hyperactivity: 2.41 ± 0.10
  SNAP-IV Impulsivity: 2.28 ± 0.22
[5]; Memory recall
  Latency to enter the aversive compartment: 53.71 s
  Time spent in the black compartment: 13.11 s
[5]; Training
  Latency to enter the aversive compartment: 11.07 s
  Time spent in the black compartment: 21.1 s
